This is an account of results in patent publication US20240092758A1, “IMIDAZOLO INDAZOLE COMPOUNDS AS JAK INHIBITORS” (Theravance Biopharma R&D IP, LLC, priority 2021, published 2024).

One test addresses JAK1 (Homo sapiens (Human), UniProt P23458). The experiment in a line: Biochemical JAK kinase assay (LanthaScreen), JAK1. The conditions noted are these: for Ki: read-out: JAK1 pKi (converted). The protocol: (§1) A panel of four LanthaScreen JAK biochemical assays (JAK1, 2, 3 and Tyk2) were carried in a common kinase reaction buffer (50 mM HEPES, pH 7.5, 0.01% Brij-35, 10 mM MgCl2, and 1 mM EGTA). Recombinant GST-tagged JAK enzymes and a GFP-tagged STAT1 peptide substrate were obtained from Life Technologies.
(§2) Serially diluted compounds were pre-incubated with each of the four JAK enzymes and the substrate in white 384-well microplates (Corning) at ambient temperature for 1 h. ATP was subsequently added to initiate the kinase reactions in 10 μL total volume, with 1% DMSO. The final enzyme concentrations for JAK1, 2, 3 and Tyk2 are 4.2 nM, 0.1 nM, 1 nM, and 0.25 nM respectively; the corresponding Km ATP concentrations used are 25 μM, 3 μM, 1.6 μM, and 10 μM; while the substrate concentration is 200 nM for all four assays. Kinase reactions were allowed to proceed for 1 hour at ambient temperature before a 10 μL preparation of EDTA (10 mM final concentration) and Tb-anti-pSTAT1 (pTyr701) antibody (Life Technologies, 2 nM final concentration) in TR-FRET dilution buffer (Life Technologies) was added. The plates were allowed to incubate at ambient temperature for 1 h before being read on the EnVision reader (Perkin Elmer). Emission ratio signals (520 nm/495 nm) were recorded and utilized to calculate the percent inhibition values based on DMSO and background controls.
(§3) For dose-response analysis, percent inhibition data were plotted vs. compound concentrations, and IC50 values were determined from a 4-parameter robust fit model with the Prism software (GraphPad Software). Results were expressed as pIC50 (negative logarithm of IC50) and subsequently converted to pKi (negative logarithm of dissociation constant, Ki) using the Cheng-Prusoff equation.
(§4) Test compounds having a lower Ki value or higher pKi value in the four JAK assays show greater inhibition of JAK activity.
For orientation: Time-resolved FRET reads energy transfer from a long-lived donor to a nearby acceptor.

Test [1] relates to IL-13 induced STAT6 phosphorylation in BEAS-2B human lung epithelial cells. The experiment in a line: Cellular JAKI potency assay (BEAS-2B). The format is cell-based. As to conditions: Homo sapiens, BEAS-2B, BEAS-2B cells, read-out: BEAS2B pIC50 (converted). The method, then: The JAKI cellular potency assay was carried out by measuring inhibition of interleukin-13 (IL-13, R&D Systems) induced STAT6 phosphorylation in BEAS-2B human lung epithelial cells (ATCC). BEAS-2B cells were grown at 37° C. in a 5% CO2 humidified incubator in 50% DMEM/50% F-12 medium (Life Technologies) supplemented with 10% FBS (Hyclone), 100 U/mL penicillin, 100 μg/mL streptomycin (Life Technologies), and 2 mM GlutaMAX (Life Technologies). On day 1 of the assay, cells were seeded at a 7,500 cells/well density in white poly-D-lysine-coated 384-well plates (Corning) with 25 μL medium and were allowed to adhere overnight in the incubator. On day 2 of the assay, the medium was removed and replaced with 12 μL of assay buffer (Hank's Balanced Salt Solution/HBSS, 25 mM HEPES, and 1 mg/ml bovine serum albumin/BSA) containing dose-responses of test compounds. Compounds were serially diluted in DMSO and then diluted another 1000-fold in media to bring the final DMSO concentration to 0.1%. Cells were incubated with test compounds at 37° C. for 1 h and followed by the addition of 12 μl of pre-warmed IL-13 (80 ng/mL in assay buffer) for stimulation. After incubating at 37° C. for 30 min, the assay buffer (containing compound and IL-13) was removed, and 10 μL of cell lysis buffer (25 mM HEPES, 0.1% SDS, 1% NP-40, 5 mM MgCl2, 1.3 mM EDTA, 1 mM EGTA, supplemented with Complete Ultra mini protease inhibitors and PhosSTOP from Roche Diagnostics). The plates were shaken at ambient temperature for 30 min before the addition of detection reagents. Levels of pSTAT6 were measured using the AlphaLISA SureFire Ultra pSTAT6 (Tyr641) assay kit from PerkinElmer. For dose-response analysis, percent inhibition data were plotted vs. compound concentrations, and IC50 values were determined from a 4-parameter robust fit model with the Graphpad Prism software. Results are expressed as the negative logarithm of the IC50 value, pIC50.
Test compounds having a lower IC50 value or higher pIC50 value in this assay show greater inhibition of IL-13 induced STAT6 phosphorylation.

A further test has as its target JAK2 (Homo sapiens (Human), UniProt O60674). The experiment in a line: Biochemical JAK kinase assay (LanthaScreen), JAK2. The conditions noted are these: for Ki: read-out: JAK2 pKi (converted). The protocol:
as §1, §2, §3, §4

JAK2, sequence (O60674 whole entry): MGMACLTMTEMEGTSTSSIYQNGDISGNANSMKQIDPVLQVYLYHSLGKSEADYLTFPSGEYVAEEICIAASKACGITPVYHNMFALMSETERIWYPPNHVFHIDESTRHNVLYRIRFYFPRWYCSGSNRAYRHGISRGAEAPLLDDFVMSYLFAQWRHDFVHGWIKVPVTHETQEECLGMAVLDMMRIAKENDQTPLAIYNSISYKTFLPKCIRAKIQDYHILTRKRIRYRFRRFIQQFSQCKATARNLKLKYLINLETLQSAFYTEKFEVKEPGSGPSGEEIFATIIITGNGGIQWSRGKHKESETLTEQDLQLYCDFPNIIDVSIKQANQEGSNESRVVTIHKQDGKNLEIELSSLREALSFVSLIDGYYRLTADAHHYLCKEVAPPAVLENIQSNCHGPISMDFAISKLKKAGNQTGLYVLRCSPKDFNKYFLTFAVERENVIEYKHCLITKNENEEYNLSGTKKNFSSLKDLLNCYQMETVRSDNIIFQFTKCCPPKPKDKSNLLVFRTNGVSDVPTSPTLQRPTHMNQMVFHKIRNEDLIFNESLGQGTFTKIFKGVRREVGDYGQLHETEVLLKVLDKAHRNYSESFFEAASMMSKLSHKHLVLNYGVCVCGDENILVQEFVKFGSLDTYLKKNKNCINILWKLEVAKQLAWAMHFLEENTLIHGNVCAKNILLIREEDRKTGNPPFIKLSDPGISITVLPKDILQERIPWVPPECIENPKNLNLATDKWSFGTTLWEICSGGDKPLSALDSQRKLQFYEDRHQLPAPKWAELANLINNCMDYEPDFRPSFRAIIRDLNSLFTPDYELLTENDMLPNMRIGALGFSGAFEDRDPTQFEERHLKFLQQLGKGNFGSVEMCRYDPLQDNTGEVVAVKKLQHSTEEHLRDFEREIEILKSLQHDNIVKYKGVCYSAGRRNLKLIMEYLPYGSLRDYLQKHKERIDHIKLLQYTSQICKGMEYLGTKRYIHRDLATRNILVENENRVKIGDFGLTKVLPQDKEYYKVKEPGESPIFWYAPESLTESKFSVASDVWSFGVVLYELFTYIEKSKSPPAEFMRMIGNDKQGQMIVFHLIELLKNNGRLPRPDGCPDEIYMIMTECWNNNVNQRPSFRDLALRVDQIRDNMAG
JAK1, sequence (P23458 whole entry): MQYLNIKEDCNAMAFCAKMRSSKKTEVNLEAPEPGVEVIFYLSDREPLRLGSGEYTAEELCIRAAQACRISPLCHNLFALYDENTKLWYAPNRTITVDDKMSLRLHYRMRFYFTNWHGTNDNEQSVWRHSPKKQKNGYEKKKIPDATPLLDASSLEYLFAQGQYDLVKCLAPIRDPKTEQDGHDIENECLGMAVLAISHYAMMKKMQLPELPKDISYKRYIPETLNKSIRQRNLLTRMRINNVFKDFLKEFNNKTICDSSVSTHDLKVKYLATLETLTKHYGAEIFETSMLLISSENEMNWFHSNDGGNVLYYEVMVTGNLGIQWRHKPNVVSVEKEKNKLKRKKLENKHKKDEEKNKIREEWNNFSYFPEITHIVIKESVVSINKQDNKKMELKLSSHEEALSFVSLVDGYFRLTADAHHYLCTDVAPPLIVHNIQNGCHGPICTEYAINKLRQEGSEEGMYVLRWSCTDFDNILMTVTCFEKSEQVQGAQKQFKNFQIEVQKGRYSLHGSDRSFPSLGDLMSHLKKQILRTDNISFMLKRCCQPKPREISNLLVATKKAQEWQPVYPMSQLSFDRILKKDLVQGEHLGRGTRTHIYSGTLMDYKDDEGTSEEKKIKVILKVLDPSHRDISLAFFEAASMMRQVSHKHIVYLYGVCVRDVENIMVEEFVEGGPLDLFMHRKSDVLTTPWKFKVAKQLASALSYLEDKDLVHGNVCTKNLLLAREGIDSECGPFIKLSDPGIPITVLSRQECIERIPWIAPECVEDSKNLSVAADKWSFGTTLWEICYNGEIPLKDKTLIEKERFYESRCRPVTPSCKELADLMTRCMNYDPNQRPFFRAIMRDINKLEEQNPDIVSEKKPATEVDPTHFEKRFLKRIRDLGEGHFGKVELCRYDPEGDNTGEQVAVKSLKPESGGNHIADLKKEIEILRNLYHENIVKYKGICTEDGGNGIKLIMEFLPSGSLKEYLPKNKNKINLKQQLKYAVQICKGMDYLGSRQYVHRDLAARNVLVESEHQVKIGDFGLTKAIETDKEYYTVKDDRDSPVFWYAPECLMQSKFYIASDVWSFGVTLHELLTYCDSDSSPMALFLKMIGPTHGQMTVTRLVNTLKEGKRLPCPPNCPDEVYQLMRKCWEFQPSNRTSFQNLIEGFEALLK

With `CCc1cc(O)ccc1-c1ccc2c(-c3nc(C4=CCN(C(=O)OC)C4)c[nH]3)n[nH]c2c1` [Example 168], the Ki on JAK1 and on JAK2 was 0.1 to 1 nM each time. The IC50 in test [1] was 10 to 31.6 nM.
For the compound `CCc1cc(O)ccc1-c1ccc2c(-c3nc(C4=C(C(=O)OC)CNCC4)c[nH]3)n[nH]c2c1F` [Example 294], the Ki on JAK1 is 0.1 to 1 nM. In addition, the IC50 in test [1] was 3.16 to 10 nM. The “JAK2 pKi” value at JAK2 is listed as “A (A represents a pKi value ≥10 (Ki≤0.1 nM))”.
Take `CCc1cc(O)ccc1-c1ccc2c(-c3nc(C4=CCN(C[C@@H](C)CO)CC4)c[nH]3)n[nH]c2c1F` [Example 39]: the Ki at JAK1 and at JAK2 was 0.1 to 1 nM throughout. Besides, the IC50 in test [1] was 10 to 31.6 nM.
For the compound `CCc1cc(O)ccc1-c1ccc2c(-c3nc(C4=CCN(CC5COC5)C4)c[nH]3)n[nH]c2c1` [Example 71], on JAK1, the “JAK1 pKi” value is recorded as “A (A represents a pKi value ≥10 (Ki≤0.1 nM))”. The IC50 in test [1] is 3.16 to 10 nM. Besides, the “JAK2 pKi” value on JAK2 is listed as “A (A represents a pKi value ≥10 (Ki≤0.1 nM))”.
For `CCc1cc(O)ccc1-c1ccc2c(-c3nc(C4=CC[C@H](C)N(CCCOC)C4)c[nH]3)n[nH]c2c1F` [Example 266], the Ki on JAK1 and at JAK2 was 0.1 to 1 nM each time. Moreover, the IC50 in test [1] was 10 to 31.6 nM.
On to `CCc1cc(O)ccc1-c1ccc2c(-c3nc(C4=CCCN(CC5COC5)C4)c[nH]3)n[nH]c2c1F` [Example 68], for which the Ki at JAK1 and on JAK2 was 0.1 to 1 nM each time. Moreover, the IC50 in test [1] is 10 to 31.6 nM.
As for `CCc1cc(O)ccc1-c1ccc2c(-c3nc(C4=CCN(C[C@@H](C)CO)C4)c[nH]3)n[nH]c2c1F` [Example 318], the Ki at JAK1 and on JAK2 was 0.1 to 1 nM throughout. Besides, the IC50 in test [1] was 10 to 31.6 nM.
Consider `CCc1cc(O)ccc1-c1ccc2c(-c3nc(C4=CCCN(C(=O)CN)C4)c[nH]3)n[nH]c2c1` [Example 164], for which the Ki at JAK1 and at JAK2 was 0.1 to 1 nM in each case. Besides, the IC50 in test [1] was 10 to 31.6 nM.
In the case of `CCc1cc(O)ccc1-c1ccc2c(-c3nc(C4=CCN(CCNS(C)(=O)=O)C4)c[nH]3)n[nH]c2c1` [Example 113], the Ki on JAK1 was 0.1 to 1 nM. The IC50 in test [1] was 10 to 31.6 nM. Also, the “JAK2 pKi” value on JAK2 is reported as “A (A represents a pKi value ≥10 (Ki≤0.1 nM))”.
Take `CCc1cc(O)ccc1-c1ccc2c(-c3nc(C4=C[C@H]([C@H](C)O)NC4)c[nH]3)n[nH]c2c1F` [Example 310]: the Ki on JAK1 was 0.1 to 1 nM. Moreover, the IC50 in test [1] is 10 to 31.6 nM. For the same compound, the “JAK2 pKi” value at JAK2 is reported as “A (A represents a pKi value ≥10 (Ki≤0.1 nM))”.
Take `CCc1cc(O)ccc1-c1ccc2c(-c3nc(C4=CCCN(CCS(C)(=O)=O)C4)c[nH]3)n[nH]c2c1` [Example 87]: the Ki at JAK1 is 0.1 to 1 nM. In addition, in test [1], the IC50 is 10 to 31.6 nM. In addition, on JAK2, the “JAK2 pKi” value is reported as “A (A represents a pKi value ≥10 (Ki≤0.1 nM))”.
On to `CCc1cc(O)ccc1-c1ccc2c(-c3nc(C4=CCN(C(C)=O)CC4)c[nH]3)n[nH]c2c1F` [Example 154], for which the Ki on JAK1 and on JAK2 was 0.1 to 1 nM in each case. Also, the IC50 in test [1] was 10 to 31.6 nM.
`CCc1cc(O)ccc1-c1ccc2c(-c3nc(C4=CCCN(C[C@@H](C)CO)C4)c[nH]3)n[nH]c2c1F` [Example 49]: the Ki on JAK1 and on JAK2 was 0.1 to 1 nM in each case. Further, the IC50 in test [1] was 10 to 31.6 nM.
Consider `CCc1cc(O)ccc1-c1ccc2c(-c3nc(C4=CCN(CC5CCCOC5)CC4)c[nH]3)n[nH]c2c1F` (stereo not drawn) [Example 63], for which the Ki on JAK1 and on JAK2 was 0.1 to 1 nM each time. Also, the IC50 in test [1] is 10 to 31.6 nM.
Take `CCc1cc(O)ccc1-c1ccc2c(-c3nc(C4=CCN(CC(=O)NC(C)(C)C)CC4)c[nH]3)n[nH]c2c1` [Example 79]: the Ki on JAK1 and at JAK2 was 0.1 to 1 nM in each case. Further, the IC50 in test [1] is 10 to 31.6 nM.
With `CCc1cc(O)ccc1-c1ccc2c(-c3nc(C4=CCN(CC(=O)NC)CC4)c[nH]3)n[nH]c2c1` [Example 78], at JAK1, the Ki was 0.1 to 1 nM. Moreover, the IC50 in test [1] is 10 to 31.6 nM. The “JAK2 pKi” value on JAK2 is “A (A represents a pKi value ≥10 (Ki≤0.1 nM))”.
`CCc1cc(O)ccc1-c1ccc2c(-c3nc(C4=CCN([C@H]5CC[C@@](O)(C(F)(F)F)CC5)C4)c[nH]3)n[nH]c2c1F` [Example 359]: the figures for the Ki at JAK1 and on JAK2 were 1 to 10 nM and 0.1 to 1 nM, respectively. The IC50 in test [1] was 31.6 to 100 nM.
Take `CCc1cc(O)ccc1-c1ccc2c(-c3nc(C4=CCN(CCS(=O)(=O)NC)C4)c[nH]3)n[nH]c2c1F` [Example 393]: the Ki at JAK1 and at JAK2 was 0.1 to 1 nM each time. For the same compound, the IC50 in test [1] is 100 to 316 nM.
As to `CCc1cc(O)ccc1-c1ccc2c(-c3nc(C4=CCN(C(=O)CN(C)C)C4)c[nH]3)n[nH]c2c1F` [Example 333], at JAK1, the Ki was 0.1 to 1 nM. Moreover, the IC50 in test [1] was 10 to 31.6 nM. Further, the “JAK2 pKi” value on JAK2 was “A (A represents a pKi value ≥10 (Ki≤0.1 nM))”.
Consider `CCc1cc(O)ccc1-c1ccc2c(-c3nc(C4=CC[C@H](C)N(CCO)C4)c[nH]3)n[nH]c2c1F` [Example 257], for which the Ki at JAK1 and on JAK2 was 0.1 to 1 nM each time. For the same compound, the IC50 in test [1] is 10 to 31.6 nM.
Consider `CCc1cc(O)ccc1-c1ccc2c(-c3nc(C4=C[C@@H](C)NC4)c[nH]3)n[nH]c2c1F` [Example 292], for which the Ki on JAK1 and at JAK2 was 0.1 to 1 nM throughout. In addition, the IC50 in test [1] was 3.16 to 10 nM.
For the compound `CCc1cc(O)ccc1-c1ccc2c(-c3nc(C4=CCN(Cc5cnc[nH]5)C4)c[nH]3)n[nH]c2c1` [Example 142], the “JAK1 pKi” value at JAK1 is listed as “A (A represents a pKi value ≥10 (Ki≤0.1 nM))”. In addition, in test [1], the IC50 is 10 to 31.6 nM. Moreover, the “JAK2 pKi” value at JAK2 was “A (A represents a pKi value ≥10 (Ki≤0.1 nM))”.
As for `CCc1cc(O)ccc1-c1ccc2c(-c3nc(C4=CCN(CCNS(=O)(=O)C(C)C)CC4)c[nH]3)n[nH]c2c1` [Example 101], the Ki at JAK1 was 0.1 to 1 nM. The IC50 in test [1] is 10 to 31.6 nM. Moreover, the “JAK2 pKi” value on JAK2 is given as “A (A represents a pKi value ≥10 (Ki≤0.1 nM))”.
`CCOC(=O)C1=C(c2c[nH]c(-c3n[nH]c4c(F)c(-c5ccc(O)cc5CC)ccc34)n2)CCNC1` [Example 323]: the Ki at JAK1 and at JAK2 was 0.1 to 1 nM each time. In addition, in test [1], the IC50 is 10 to 31.6 nM.
In the case of `CCc1cc(O)ccc1-c1ccc2c(-c3nc(C4=CCN(CCNS(C)(=O)=O)CC4)c[nH]3)n[nH]c2c1` [Example 99], on JAK1, the “JAK1 pKi” value was “A (A represents a pKi value ≥10 (Ki≤0.1 nM))”. In addition, in test [1], the IC50 was 10 to 31.6 nM. Moreover, the “JAK2 pKi” value on JAK2 was “A (A represents a pKi value ≥10 (Ki≤0.1 nM))”.
Consider `CCc1cc(O)ccc1-c1ccc2c(-c3nc(C4=C[C@H](CO)N(CCS(=O)(=O)NC)C4)c[nH]3)n[nH]c2c1F` [Example 280], for which the IC50 in test [1] is 100 to 316 nM. The “JAK2 pKi” value at JAK2 is “A (A represents a pKi value ≥10 (Ki≤0.1 nM))”.
Regarding `CCc1cc(O)ccc1-c1ccc2c(-c3nc(C4=C[C@H](CO)N(CCS(C)(=O)=O)C4)c[nH]3)n[nH]c2c1F` [Example 279], on JAK1, the Ki was 0.1 to 1 nM. The IC50 in test [1] was 31.6 to 100 nM.
On the same counts, the results for `CCc1cc(O)ccc1-c1ccc2c(-c3nc(C4=CCCN(C(=O)[C@@H](N)C(C)(C)O)C4)c[nH]3)n[nH]c2c1` [Example 165] are 0.1 to 1 nM and 10 to 31.6 nM.
